Assay results as given in patent publication US7592350B2, “Polycyclic compounds as potent alpha2-adrenoceptor antagonists” (Orion Corporation, priority 2002, dated 2009).

Assays:
rats [1] = test: Forced swimming test; assay type: in vivo; conditions: compared to vehicle
Experimental: Forced swimming test (FST, i.e. Porsolt's test) is generally used in the pharmacological screening of new-antidepressants. In this test, antidepressants increase the animals' activity compared to non-treated controls. […] Therefore, it was tested, whether a selective alfa2C-antagonist would have antidepressant-like activity (e.g. activity-increasing property) in the FST. […] Also the positive control substances desipramine and fluoxetine (clinically effective antidepressant agents) were active.

alpha2A-adrenoceptor [2] = target: T1, alpha2A-adrenoceptor (Homo sapiens, UniProt P08913); test: Radioligand binding to alpha2-adrenoceptors (alpha2A); conditions: calculated Ki from radioligand binding assays; read-out: Binding affinity (Ki) alpha2A
T1 sequence (P08913 1-465): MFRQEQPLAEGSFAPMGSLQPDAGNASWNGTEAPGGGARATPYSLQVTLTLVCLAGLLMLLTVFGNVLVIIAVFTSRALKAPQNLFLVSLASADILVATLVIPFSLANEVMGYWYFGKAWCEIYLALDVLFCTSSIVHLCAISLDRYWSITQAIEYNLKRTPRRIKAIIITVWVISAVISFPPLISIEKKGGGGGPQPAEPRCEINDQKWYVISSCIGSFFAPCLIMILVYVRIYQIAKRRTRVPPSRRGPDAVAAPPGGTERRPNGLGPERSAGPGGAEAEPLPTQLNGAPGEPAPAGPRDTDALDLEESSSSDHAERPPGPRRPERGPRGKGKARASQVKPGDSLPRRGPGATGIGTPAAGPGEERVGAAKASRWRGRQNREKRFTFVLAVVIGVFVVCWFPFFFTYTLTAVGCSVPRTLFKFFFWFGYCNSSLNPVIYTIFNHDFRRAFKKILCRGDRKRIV

alpha2B-adrenoceptor [3] = target: T2, alpha2B-adrenoceptor (Homo sapiens, UniProt P18089); test: Radioligand binding to alpha2-adrenoceptors (alpha2B); conditions: calculated Ki from radioligand binding assays; read-out: Binding affinity (Ki) alpha2B
T2 sequence (P18089 1-450): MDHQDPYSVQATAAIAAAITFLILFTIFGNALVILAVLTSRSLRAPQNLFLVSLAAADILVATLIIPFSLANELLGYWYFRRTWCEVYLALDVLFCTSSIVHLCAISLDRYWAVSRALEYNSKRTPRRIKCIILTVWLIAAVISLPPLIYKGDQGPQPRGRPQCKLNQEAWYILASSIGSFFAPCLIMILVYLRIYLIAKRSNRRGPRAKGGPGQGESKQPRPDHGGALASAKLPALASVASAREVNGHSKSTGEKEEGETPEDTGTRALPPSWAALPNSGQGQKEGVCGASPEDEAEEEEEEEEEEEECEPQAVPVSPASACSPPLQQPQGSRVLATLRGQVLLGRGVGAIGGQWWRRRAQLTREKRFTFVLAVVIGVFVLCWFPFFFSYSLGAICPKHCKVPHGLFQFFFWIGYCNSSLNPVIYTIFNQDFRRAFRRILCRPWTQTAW
From the text: Examples of the alpha2-adrenoceptor binding affinities of the compounds including in the present invention are shown in the Table 1. Many of these compouinds are high-affinity ligands for all the alpha2-receptors, but some of them display selectivity for the alpha2C-subtype.

alpha2C-adrenoceptor [4] = target: T3, alpha2C-adrenoceptor (Homo sapiens, UniProt P18825); test: Radioligand binding to alpha2-adrenoceptors (alpha2C); conditions: calculated Ki from radioligand binding assays; read-out: Binding affinity (Ki) alpha2C
T3 sequence (P18825 1-462): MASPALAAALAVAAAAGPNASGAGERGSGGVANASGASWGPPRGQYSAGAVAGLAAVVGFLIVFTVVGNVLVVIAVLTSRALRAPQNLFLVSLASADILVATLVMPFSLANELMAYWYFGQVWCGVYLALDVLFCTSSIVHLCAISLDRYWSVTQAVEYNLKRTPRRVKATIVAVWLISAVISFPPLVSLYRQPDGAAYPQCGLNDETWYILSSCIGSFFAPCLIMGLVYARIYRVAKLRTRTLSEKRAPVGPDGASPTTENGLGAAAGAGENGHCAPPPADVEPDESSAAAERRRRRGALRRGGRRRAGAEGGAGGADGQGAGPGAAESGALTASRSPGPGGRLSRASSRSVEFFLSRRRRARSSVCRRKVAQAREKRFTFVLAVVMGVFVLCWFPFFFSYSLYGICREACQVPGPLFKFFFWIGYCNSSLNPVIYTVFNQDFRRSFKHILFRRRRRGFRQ

mice = test: Antagonism of alpha2-agonist (dexmedetomidine)-induced sedation; assay type: in vivo; conditions: dexmedetomidine 50 nmol/kg s.c., antagonist pre-treatment
Experimental: (veh=vehicle). (***p<0.001, compared to Dex+vehicle)
One of the prominent effects of non-selective alpha2-agonists in rodents is their ability to cause profound sedation. This effect, measured as locomotor inhibition by the alpha2-agonist dexmedetomidine was not modified in mice with genetically altered alpha2C-expression (Scheinin, M. et al., Life Sci 68(19-20) (2001) 2277-85). […] This assumption was tested in experiment, where dexmedetomidine was administered to mice pre-treated with the alpha2C-antagonists compound K or compound L, or the subtype non-selective antagonist atipamezole (Haapalinna, A. et al., Naunyn-Schmiedeberg's Arch. Pharmacol. 356 (1997) 570-582).

alpha2A-adrenoceptor [5] = target: T1, alpha2A-adrenoceptor; test: Inhibition of epinephrine-stimulated 35S-GTPγS binding, CHO cell membranes (alpha2A); assay type: biochemical; design: expressed in transfected cells; host or cells: CHO cells (membranes); conditions: mean, read-out: Antagonist potency (KB) alpha2A
Experimental: (§1) The functional activities of two compounds (K and L) displaying alpha2C-selectivity in binding experiments were determined as the abilities of the compounds to inhibit the epinephrine-stimulated binding of ^35S-GTPγS to G proteins (Jasper, J. R. et al., Biochem. Pharmacol. 55(7) (1998) 103544) in membranes of CHO cells stably transfected with the human alpha2-adrenoceptor subtypes.

alpha2B-adrenoceptor [6] = target: T2, alpha2B-adrenoceptor; test: Inhibition of epinephrine-stimulated 35S-GTPγS binding, CHO cell membranes (alpha2B); assay type: biochemical; design: expressed in transfected cells; host or cells: CHO cells (membranes); conditions: mean, read-out: Antagonist potency (KB) alpha2B
Experimental: as §1

alpha2C-adrenoceptor [7] = target: T3, alpha2C-adrenoceptor; test: Inhibition of epinephrine-stimulated 35S-GTPγS binding, CHO cell membranes (alpha2C); assay type: biochemical; design: expressed in transfected cells; host or cells: CHO cells (membranes); conditions: mean, read-out: Antagonist potency (KB) alpha2C
Experimental: as §1

rats [8] = test: Prepulse inhibition of the startle reflex; assay type: in vivo
Experimental: FIGS. 4a and 4b show the effect of compounds K and L on the startle reflex and its prepulse inhibition in rats. (Veh=vehicle). Asterisks as in FIG. 1; comparisons were performed between PCP (phencyclidine)+vehicle and PCP+compounds K and L.
FIGS. 5a and 5b show the effect of the non-selective antagonist atiparnezole (ati) on the startle reflex and its prepulse inhibition in rats in the prescence of phencyclidine (PCP); (veh=vehicle). Asterisks as in FIG. 1, compared to the vehicle+PCP -group.
Prepulse-inhibition (PPI) of a startle response refers to the reduction in the startle response caused by a low intensity non-startling stimulus (the prepulse) which is presented shortly before the startle stimulus. PPI can be used as an operational measure of sensorimotor gating and appears to be present in all mammals, including rats and humans (Swerdlow, N. R. et al., The archives of general psychiatry 51 (1994) 139-154). Normally finctioning PPI can be disrupted by psychostimulants, such as d-amphetamine or phencyclidine (PCP), and reversed by clinically effective antipsychotics.
This hypothesis was tested with compounds K and L alone and against PCP disruption of the PPI. […]

CNCCC(Oc1ccc(C(F)(F)F)cc1)c1ccccc1 (stereo not shown) [fluoxetine]
Activity in the forced swimming test (rats [1]; 10 micromol/kg): increased activity

CNCCCN1c2ccccc2CCc2ccccc21 [desipramine]
Activity in the forced swimming test (rats [1]; 10 micromol/kg): increased activity

CCC1(O)CCCN2CCc3c([nH]c4ccccc34)C21 (stereo not drawn) [Compound K, 1α-Ethyl-1,2,3,4,6,7,12,12bβ-octahydroindolo[2,3-]quinolizin-1-ol]
Ki (alpha2A-adrenoceptor [2]): 0.359 µM | Ki (alpha2B-adrenoceptor [3]): 0.245 µM | Ki (alpha2C-adrenoceptor [4]): 0.031 µM | Antagonism of dexmedetomidine-induced sedation (locomotor inhibition) (mice): did not have clear effects | Activity in the forced swimming test (rats [1]; 3 micromol/kg): increased activity | Kb (alpha2A-adrenoceptor [5]): 0.295 µM | Kb (alpha2B-adrenoceptor [6]): 0.351 µM | Kb (alpha2C-adrenoceptor [7]): 0.023 µM

CCC1(c2cnc[nH]2)Cc2ccccc2C1 [atipamezole]
Antagonism of dexmedetomidine-induced sedation (locomotor inhibition) (mice): effectively antagonised the effect of dexmedetomidine | Activity in the forced swimming test (rats [1]; 10 micromol/kg): did not possess antidepressant-like effect | Effect on prepulse inhibition (PPI) disrupted by PCP (rats [8]; antagonist 20 min, PCP 10 min before measurement): did not enhance PPI | Effect on startle reflex per se (startle without prepulses) (rats [8]; in the presence of PCP): increased the startle reflex per se

CC[C@]1(CO)CCCN2CCc3c([nH]c4ccccc34)[C@@H]21 (relative stereo) [Compound L]
Ki (alpha2A-adrenoceptor [2]): 0.085 µM | Ki (alpha2B-adrenoceptor [3]): 0.02 µM | Ki (alpha2C-adrenoceptor [4]): 0.018 µM | Antagonism of dexmedetomidine-induced sedation (locomotor inhibition) (mice): did not have clear effects | Activity in the forced swimming test (rats [1]; 3 micromol/kg): increased activity | Kb (alpha2A-adrenoceptor [5]): 0.32 µM | Kb (alpha2B-adrenoceptor [6]): 0.075 µM | Kb (alpha2C-adrenoceptor [7]): 0.0042 µM
